Data from article PMC9127750, “Structure-based design of CDC42 effector interaction inhibitors for the treatment of cancer” (Cell reports, 2022).

Test system: WM3248 melanoma cells, 486 antibodies
Test: Reverse phase protein arrays (RPPA);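 on RPPA ACC1.R.C: ratio of treated to vehicle (0 µM) normalized linear protein signal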;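 on RPPA AMPK.a2 pS345.R.V: ratio of treated to vehicle (0 µM) normalized linear protein signal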;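 on RPPA AMPKa pT172.R.C: ratio of treated to vehicle (0 µM) normalized linear protein signal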;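 on RPPA ASNS.R.V: ratio of treated to vehicle (0 µM) normalized linear protein signal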;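 on RPPA AceCS1.R.V: ratio of treated to vehicle (0 µM) normalized linear protein signal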;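 on RPPA Akt1.R.V: ratio of treated to vehicle (0 µM) normalized linear protein signal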;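 on RPPA Atg5.R.C: ratio of treated to vehicle (0 µM) normalized linear protein signal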;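 on RPPA Bim.R.V: ratio of treated to vehicle (0 µM) normalized linear protein signal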
Type: cell-based, Human
Details: 10 uM
Excerpt: Pellets were snap frozen in liquid nitrogen and shipped to MD Anderson Cancer Center core RPPA facility for RPPA analysis (Table S5). Three biological replicates for each sample were generated.
Nomenclatures on the RPPA heatmaps: name_of_antibody.species_of_antibody.status_of_antibody. V - antibody validated; C - validation of antibody in progress; Q - antibody nonspecific; E – under evaluation; antibodies raised in M - mouse, G - goat, R - rabbit, or T - rat.

In the case of `CN(C)c1cccc(Nc2cc(-c3ccccc3)nc(C3CCNCC3)n2)c1` [ARN22089, N1,N1-dimethyl-N3-(6-phenyl-2-(piperidin-4-yl)pyrimidin-4-yl)benzene-1,3-diamine], the “RPPA B7.H4.R.C” value (10W1) is reported as 1.035, the “RPPA B.Raf.R.C” value (10W1) is reported as 0.916 and the “RPPA B.Raf_pS445.R.V” value (10W1) is reported as 0.953. For the same compound, the “RPPA BAP1.M.V” value (10W1) was 0.957, the “RPPA BCL2A1.R.V” value (10W1) was 1.947 and the “RPPA BMK1.Erk5_pT218_Y220.R.V” value (10W1) was 0.926. For the same compound, the “RPPA BRCA1.M.C” value (10W1) was 1.059, the “RPPA BRD4.R.V” value (10W1) was 1.134 and the “RPPA Bad_pS112.R.V” value (10W1) was 1.118. The “RPPA Bax.R.V” value (10W1) was 1.004, the “RPPA Bcl2.R.C” value (10W1) was 1.048 and the “RPPA Bcl.xL.R.V” value (10W1) was 1.112. The “RPPA Beclin.R.C” value (10W1) was 1.064, the “RPPA Bim.R.V” value (10W1) was 1.024 and the “RPPA X4E.BP1.R.V” value (10W1) was 0.716. The “RPPA X4E.BP1_pS65.R.V” value (10W1) was 0.893, the “RPPA X4E.BP1_pT37_T46.R.V” value (10W1) was 0.934 and the “RPPA X14.3.3.zeta.R.V” value (10W1) was 1.029. The “RPPA X14.3.3βR.V” value (10W1) was 1.012, the “RPPA X14.3.3εM.C” value (10W1) was 0.955 and the “RPPA X53BP1.R.V” value (10W1) was 0.984. The “RPPA b.Catenin.R.V” value (10W1) was 0.868, the “RPPA b.Catenin_pT41_S45.R.V” value (10W1) was 1.019 and the “RPPA c.Abl.R.V” value (10W1) was 1.140. For the same compound, the “RPPA c.Abl_pY412.R.C” value (10W1) was 0.995, the “RPPA A.Raf_pS299.R.C” value (10W3) was 0.989 and the “RPPA ACC1.R.C” value (10W3) was 0.761. For the same compound, the “RPPA ACC_pS79.R.V” value (10W3) was 0.652, the “RPPA ACLY_pS455.R.V” value (10W3) was 1.060 and the “RPPA ACSL1.R.V” value (10W3) was 0.743. For the same compound, the “RPPA ACVRL1.R.C” value (10W3) was 1.047, the “RPPA ADAR1.M.V” value (10W3) was 0.974 and the “RPPA AMPK.a2_pS345.R.V” value (10W3) was 1.012. The “RPPA AMPKa.R.C” value (10W3) was 0.993, the “RPPA AMPKa_pT172.R.C” value (10W3) was 0.770 and the “RPPA AR.R.V” value (10W3) was 0.980. The “RPPA ARID1A.R.C” value (10W3) was 1.025, the “RPPA ASNS.R.V” value (10W3) was 1.126 and the “RPPA ATM.R.V” value (10W3) was 0.864. For the same compound, the “RPPA ATM_pS1981.R.V” value (10W3) was 1.016, the “RPPA ATP5A.M.C” value (10W3) was 0.859 and the “RPPA ATP5H.R.V” value (10W3) was 1.047. The “RPPA ATR.R.V” value (10W3) was 0.992, the “RPPA ATRX.R.C” value (10W3) was 0.863 and the “RPPA ATR_pS428.R.C” value (10W3) was 1.076. For the same compound, the “RPPA AceCS1.R.V” value (10W3) was 0.950, the “RPPA Akt1.R.V” value (10W3) was 1.034 and the “RPPA Akt1_pS473.R.V” value (10W3) was 1.099. The “RPPA Akt2.R.V” value (10W3) was 0.982, the “RPPA Akt2_pS474.R.C” value (10W3) was 1.062 and the “RPPA Akt.R.V” value (10W3) was 0.811. For the same compound, the “RPPA Akt_pS473.R.V” value (10W3) was 1.223, the “RPPA Akt_pT308.R.V” value (10W3) was 1.196 and the “RPPA Ambra1_pS52.R.C” value (10W3) was 0.979. For the same compound, the “RPPA Annexin.I.M.V” value (10W3) was 0.896, the “RPPA Annexin.VII.M.V” value (10W3) was 0.983 and the “RPPA Atg5.R.C” value (10W3) was 0.843. The “RPPA Atg7.R.V” value (10W3) was 0.986, the “RPPA Aurora.A.R.C” value (10W3) was 1.109 and the “RPPA Aurora.ABC_pT288_pT232_pT198.R.C” value (10W3) was 0.933. The “RPPA Aurora.B.R.V” value (10W3) was 1.003, the “RPPA Axl.R.V” value (10W3) was 0.953 and the “RPPA B7.H3.R.C” value (10W3) was 1.031. The “RPPA B.Raf_pS445.R.V” value (10W3) was 1.006, the “RPPA BAP1.M.V” value (10W3) was 1.063 and the “RPPA BCL2A1.R.V” value (10W3) was 1.172. For the same compound, the “RPPA BMK1.Erk5_pT218_Y220.R.V” value (10W3) was 0.935, the “RPPA BRCA1.M.C” value (10W3) was 0.989 and the “RPPA BRD4.R.V” value (10W3) was 0.839. The “RPPA Bad_pS112.R.V” value (10W3) was 1.059, the “RPPA Bak.R.C” value (10W3) was 1.018 and the “RPPA Bax.R.V” value (10W3) was 0.972. The “RPPA Bcl.xL.R.V” value (10W3) was 1.015, the “RPPA Beclin.R.C” value (10W3) was 0.995 and the “RPPA BiP.GRP78.M.C” value (10W3) was 1.013. For the same compound, the “RPPA Bid.R.C” value (10W3) was 1.021, the “RPPA Bim.R.V” value (10W3) was 0.900 and the “RPPA X4E.BP1.R.V” value (10W3) was 0.590. For the same compound, the “RPPA X4E.BP1_pS65.R.V” value (10W3) was 1.148, the “RPPA X4E.BP1_pT37_T46.R.V” value (10W3) was 1.133 and the “RPPA X14.3.3.zeta.R.V” value (10W3) was 1.033. For the same compound, the “RPPA X14.3.3βR.V” value (10W3) was 1.026, the “RPPA X14.3.3εM.C” value (10W3) was 1.009 and the “RPPA X53BP1.R.V” value (10W3) was 0.920. For the same compound, the “RPPA b.Actin.R.C” value (10W3) was 1.024, the “RPPA b.Catenin.R.V” value (10W3) was 0.914 and the “RPPA b.Catenin_pT41_S45.R.V” value (10W3) was 1.012. For the same compound, the “RPPA c.Abl.R.V” value (10W3) was 1.061, the “RPPA c.Abl_pY412.R.C” value (10W3) was 0.963 and the “RPPA c.IAP2.R.C” value (10W3) was 1.023. The “C.Raf.R.C RPPA level” value (Average) was 0.940, the “C.Raf_pS338.R.V RPPA level” value (Average) was 0.978 and the “CA9.R.C RPPA level” value (Average) was 0.980. For the same compound, the “CD2.M.C RPPA level” value (Average) was 1.035, the “CD4.R.V RPPA level” value (Average) was 0.935 and the “CD5.M.C RPPA level” value (Average) was 1.029. For the same compound, the “CD20.R.C RPPA level” value (Average) was 1.026, the “CD26.R.V RPPA level” value (Average) was 0.948 and the “CD29.M.V RPPA level” value (Average) was 1.016. For the same compound, the “CD31.M.V RPPA level” value (Average) was 1.034, the “CD38.R.C RPPA level” value (Average) was 0.977 and the “CD44.R.C RPPA level” value (Average) was 1.010. The “CD45.M.V RPPA level” value (Average) was 1.023, the “CD49b.M.V RPPA level” value (Average) was 1.014 and the “CD68.M.C RPPA level” value (Average) was 1.034. For the same compound, the “CD134.R.V RPPA level” value (Average) was 1.019, the “CD171.M.V RPPA level” value (Average) was 0.898 and the “CDK1_pT14.R.C RPPA level” value (Average) was 0.932. The “CDK9.R.V RPPA level” value (Average) was 1.014, the “CDT1.R.V RPPA level” value (Average) was 1.048 and the “CENP.A.R.V RPPA level” value (Average) was 1.017. For the same compound, the “CHD1L.R.V RPPA level” value (Average) was 1.034, the “CIITA.R.C RPPA level” value (Average) was 1.018 and the “COG3.R.V RPPA level” value (Average) was 1.062. For the same compound, the “CRABP1.R.C RPPA level” value (Average) was 1.050, the “CREB_pS133.R.C RPPA level” value (Average) was 1.130 and the “Calnexin.R.V RPPA level” value (Average) was 1.046. The “Caspase.3.cleaved.R.C RPPA level” value (Average) was 0.944, the “Caspase.7.cleaved..R.C RPPA level” value (Average) was 0.997 and the “Caspase.8.M.Q RPPA level” value (Average) was 0.957. For the same compound, the “Caspase.8.cleaved.R.C RPPA level” value (Average) was 0.988, the “Caveolin.1.R.V RPPA level” value (Average) was 0.941 and the “Cdc6.R.V RPPA level” value (Average) was 0.971. For the same compound, the “Cdc42.R.C RPPA level” value (Average) was 0.986, the “Chk1.M.C RPPA level” value (Average) was 1.082 and the “Chk1_pS345.R.C RPPA level” value (Average) was 0.961. For the same compound, the “Chk2.M.V RPPA level” value (Average) was 1.026, the “Chk2_pT68.R.C RPPA level” value (Average) was 1.020 and the “Claudin.7.R.V RPPA level” value (Average) was 1.203. For the same compound, the “Collagen.VI.R.V RPPA level” value (Average) was 1.025, the “Complex.II.Subunit.M.V RPPA level” value (Average) was 1.017 and the “Connexin.43.R.C RPPA level” value (Average) was 1.031. The “Coup.TFII.R.C RPPA level” value (Average) was 0.889, the “Cox2.R.C RPPA level” value (Average) was 0.972 and the “Cox.IV.R.V RPPA level” value (Average) was 0.954. The “Creb.R.C RPPA level” value (Average) was 0.986, the “CtIP.R.V RPPA level” value (Average) was 0.940 and the “Cyclin.B1.R.V RPPA level” value (Average) was 0.940. The “Cyclin.D1.R.C RPPA level” value (Average) was 1.061, the “Cyclin.D3.M.V RPPA level” value (Average) was 1.058 and the “Cyclin.E1.R.V RPPA level” value (Average) was 1.006. For the same compound, the “Cyclophilin.F.M.V RPPA level” value (Average) was 0.965, the “D.a.Tubulin.R.V RPPA level” value (Average) was 0.976 and the “DAPK2.R.C RPPA level” value (Average) was 0.971. The “DDB.1.R.V RPPA level” value (Average) was 0.857, the “DDR1.R.V RPPA level” value (Average) was 1.028 and the “DDR1_pY513.R.C RPPA level” value (Average) was 1.051. For the same compound, the “DJ1.R.V RPPA level” value (Average) was 1.016, the “DM.Histone.H3.R.V RPPA level” value (Average) was 0.928 and the “DNA.Ligase.IV.R.C RPPA level” value (Average) was 1.003. The “DNA_POLG.R.V RPPA level” value (Average) was 1.013, the “RPPA A.Raf.R.V” value (Average) was 0.917 and the “RPPA ACC1.R.C” value (Average) was 0.919. The “RPPA ACC_pS79.R.V” value (Average) was 0.878, the “RPPA ACLY_pS455.R.V” value (Average) was 1.125 and the “RPPA ACSL1.R.V” value (Average) was 0.971. The “RPPA ADAR1.M.V” value (Average) was 1.083, the “RPPA ALKBH5.R.V” value (Average) was 1.027 and the “RPPA AMPK.a2_pS345.R.V” value (Average) was 1.001. The “RPPA AMPKa.R.C” value (Average) was 0.982, the “RPPA AMPKa_pT172.R.C” value (Average) was 1.263 and the “RPPA AR.R.V” value (Average) was 0.922. The “RPPA ASNS.R.V” value (Average) was 0.960.
